Assay results published in patent US8754226B2, “Piperidinyl-substituted lactams as GPR119 modulators” (Array BioPharma Inc., priority 2010, dated 2014).
Structures can show the parent of a compound that is named as a salt.

Tested on: modified version of the GPR119 receptor (94% identity to human receptor)
Experiment: cAMP production assay (LANCE cAMP kit, TR-FRET) in HEK-293 cells
Type: cell-based
Conditions: for cAMP production in HEK-293 cells: HEK-293 cells stably expressing modified GPR119, test compounds 0.2 nM to 10 μM, one-hour incubation at ambient temperature; for Fold over baseline: increase in cAMP relative to basal levels, agonist activity if 1.5-fold or greater
Protocol: The assay utilized HEK-293 cells that stably express a modified version of the GPR119 receptor (94% identity to human receptor), under the control of a CMV promoter containing a tet-on element for tetracycline-inducible expression. GPR119 agonist-induced cyclic AMP (cAMP) production was measured in this cell line using the LANCE cAMP kit (Perkin Elmer, Waltham, Mass.). To generate a working stock of cells for the assay, cells were treated overnight with 1 μg/mL doxycycline at 37° C. in the presence of 5% CO2 to induce receptor expression. Cells were then harvested by enzymatic dissociation with 0.05% trypsin, resuspended in freezing medium (DMEM growth medium with 10% each of fetal bovine serum and DMSO), aliquoted and frozen at −80° C. On the day of the assay, frozen cells were thawed, washed 1× in PBS and resuspended in Hank's buffered salt solution (HBSS) containing 5 mM HEPES, 0.1% BSA and Alexa Fluor 647-conjugated anti-cAMP antibody (diluted 1:100). The cell suspension was then transferred to a Proxiplate Plus white 384-well assay plate (Perkin-Elmer) at 2000 cells/well. Test compounds at final concentrations ranging from 0.2 nM to 10 μM were added to the assay plate, followed by a one-hour incubation at ambient temperature (volume=10 μL/well). DMSO concentration was held constant at 0.5%. After incubation with test compounds, 10 μL of a detergent buffer containing a biotinylated cAMP/Europium-conjugated streptavidin complex (Europium-labeled cAMP tracer) were added to each well on the assay plate, followed by a 2-hour incubation at ambient temperature. During this incubation cAMP released from lysed cells competes with the Europium-labeled cAMP tracer for binding to the Alexa Fluor 647-conjugated antibody. […] Cellular cAMP levels were then determined by interpolation of raw signal data using a cAMP standard curve. Compounds were determined to have agonist activity if they stimulated a 1.5-fold or greater increase in cAMP relative to basal levels.

Row | Structure (SMILES) | cAMP production in HEK-293 cells [nmol] | Fold over baseline
1 | CS(=O)(=O)c1cc(F)c(N[C@H]2CCN(C3CCN(c4cnc(Cl)cn4)CC3)C2=O)c(F)c1 [Example 20, (S)-1-(1-(5-chloropyrazin-2-yl)piperidin-4-yl)-3-(2,6-difluoro-4-(methylsulfonyl)phenylamino) pyrrolidin-2-one] | 24.4 | 6.5
2 | CCc1cnc(N2CCC(N3CC[C@H](Nc4c(F)cc(S(C)(=O)=O)cc4F)C3=O)CC2)nc1 [Example 21, (S)-3-(2,6-difluoro-4-(methylsulfonyl)phenylamino)-1-(1-(5-ethylpyrimidin-2-yl)piperidin-4-yl)pyrrolidin-2-one] | 6.6 | 1.9
3 | O=C1[C@@H](Nc2ncc(C(F)(F)F)cc2Cl)CCN1C1CCN(c2cnc(Cl)cn2)CC1 [Example 22, (S)-3-(3-chloro-5-(trifluoromethyl)pyridin-2-ylamino)-1-(1-(5-chloropyrazin-2-yl)piperidin-4-yl)pyrrolidin-2-one] | 32.7 | 5.6
4 | O=C1[C@@H](Nc2ccc(C(F)(F)F)cn2)CCN1C1CCN(c2cnc(Cl)cn2)CC1 [Example 23, (S)-1-(1-(5-chloropyrazin-2-yl)piperidin-4-yl)-3-(5-(trifluoromethyl)pyridin-2-ylamino)pyrrolidin-2-one] | 13.6 | 3.0
5 | CCc1ccc(N2CCC(N3CCC(Nc4ccc(S(C)(=O)=O)cc4F)C3=O)CC2)nc1 (stereo not shown) [Example 24, 1-(1-(5-ethylpyridin-2-yl)piperidin-4-yl)-3-(2-fluoro-4-(methylsulfonyl)phenylamino)pyrrolidin-2-one] | 24.8 | 2.9
6 | CS(=O)(=O)c1ccc(NC2CCN(C3CCN(c4ccc(-c5ccccc5)cn4)CC3)C2=O)c(F)c1 (stereo not shown) [Example 25, 3-(2-fluoro-4-(methylsulfonyl)phenylamino)-1-(1-(5-phenylpyridin-2-yl)piperidin-4-yl)pyrrolidin-2-one] | 11.6 | 2.9
7 | CCc1cnc(N2CCC(N3CCCC(Oc4cc(F)c(S(C)(=O)=O)cc4F)C3=O)CC2)nc1 (stereo not shown) [Example 26, 3-(2,5-difluoro-4-(methylsulfonyl)phenoxy)-1′-(5-ethylpyrimidin-2-yl)-1,4′-bipiperidin-2-one] | 19.1 | 4.2
8 | CCc1ccc(N2CCC(N3CC[C@H](Nc4ccc(S(C)(=O)=O)cc4F)C3=O)CC2)nc1 [Example 27A, (S)-1-(1-(5-Ethylpyridin-2-yl)piperidin-4-yl)-3-(2-fluoro-4-(methylsulfonyl)phenylamino)pyrrolidin-2-one] | 12.9 | 2.9
9 | CCc1ccc(N2CCC(N3CC[C@@H](Nc4ccc(S(C)(=O)=O)cc4F)C3=O)CC2)nc1 [Example 27B, (R)-1-(1-(5-ethylpyridin-2-yl)piperidin-4-yl)-3-(2-fluoro-4-(methylsulfonyl)phenylamino)pyrrolidin-2-one] | 7.5 | 2.2
10 | CCc1cnc(N2CCC(N3CCC(Nc4ccc(S(C)(=O)=O)cc4F)C3=O)CC2)c(C)c1 (stereo not shown) [Example 28, 1-(1-(5-ethyl-3-methylpyridin-2-yl)piperidin-4-yl)-3-(2-fluoro-4-(methylsulfonyl)phenylamino)pyrrolidin-2-one] | 39.4 | 4.0
11 | CC(C)c1cnc(N2CCC(N3CC[C@H](Nc4ccc(S(C)(=O)=O)cc4F)C3=O)CC2)nc1 [Example 29, (S)-3-(2-fluoro-4-(methylsulfonyl)phenylamino)-1-(1-(5-isopropylpyrimidin-2-yl)piperidin-4-yl)pyrrolidin-2-one trifluoroacetate] | 11.5 | 2.1
